Our source for the mutagenic call values is PubChem BioAssay AID1259407 (Chemical Carcinogenesis Research Information System (CCRIS), 2018).

The subject of the data set is CCRIS mutagenicity, Ames/micronucleus/aberration tests. Kind of data set: CCRIS mutagenicity studies.
The mark [1] stands for this setting: Test System: AMES SALMONELLA TYPHIMURIUM, Strain/Indicator: TA98, Metabolic Activation: NONE, Method: STANDARD PLATE.
Where [2] appears, read: Test System: AMES SALMONELLA TYPHIMURIUM, Strain/Indicator: TA98, Metabolic Activation: S-9, Method: STANDARD PLATE.
The mark [3] stands for this setting: Test System: AMES SALMONELLA TYPHIMURIUM, Strain/Indicator: TA100, Metabolic Activation: NONE, Method: STANDARD PLATE.
The mark [4] stands for this setting: Test System: AMES SALMONELLA TYPHIMURIUM, Strain/Indicator: TA100, Metabolic Activation: S-9, Method: STANDARD PLATE.

Molecules are shown by their SMILES. Active and inactive are the calls of the source. How the calls were made is not given here.

As for `CCCCCCCC/C=C\CCCCCCCC(N)=O`, the mutagenic call is “inactive; negative. precipitation at 3 highest doses” (Test System: Ames Salmonella typhimurium, Strain/Indicator: TA98, Metabolic Activation: None, Method: Preincubation); “inactive; negative. precipitation at 3 highest doses” (Test System: Ames Salmonella typhimurium, Strain/Indicator: TA98, Metabolic Activation: Rat, Liver, S9, Phenobarbital and 5,6-benzoflavone, Method: Preincubation); “inactive; negative. precipitation at 3 highest doses” (Test System: Ames Salmonella typhimurium, Strain/Indicator: TA100, Metabolic Activation: None, Method: Preincubation); “inactive; negative. precipitation at 3 highest doses” (Test System: Ames Salmonella typhimurium, Strain/Indicator: TA100, Metabolic Activation: Rat, Liver, S9, Phenobarbital and 5,6-benzoflavone, Method: Preincubation); “inactive; negative. precipitation at 3 highest doses” (Test System: Ames Salmonella typhimurium, Strain/Indicator: TA1535, Metabolic Activation: None, Method: Preincubation); “inactive; negative. precipitation at 3 highest doses” (Test System: Ames Salmonella typhimurium, Strain/Indicator: TA1535, Metabolic Activation: Rat, Liver, S9, Phenobarbital and 5,6-benzoflavone, Method: Preincubation). In addition, the mutagenic call by setting is: (Test System: Ames Salmonella typhimurium, Strain/Indicator: TA1537, Metabolic Activation: None, Method: Preincubation) “inactive; negative. precipitation at 3 highest doses”; (Test System: Ames Salmonella typhimurium, Strain/Indicator: TA1537, Metabolic Activation: Rat, Liver, S9, Phenobarbital and 5,6-benzoflavone, Method: Preincubation) “inactive; negative. precipitation at 3 highest doses”; (Test System: E. coli, Strain/Indicator: WP2uvrA/pKM101, Metabolic Activation: None, Method: Preincubation) “inactive; negative. precipitation at 3 highest doses”; (Test System: E. coli, Strain/Indicator: WP2uvrA/pKM101, Metabolic Activation: Rat, Liver, S9, Phenobarbital and 5,6-benzoflavone, Method: Preincubation) “inactive; negative. precipitation at 3 highest doses”.

For the molecule `CC(=O)O[C@H]1C(=O)[C@@]2(C)[C@H]([C@H](OC(=O)c3ccccc3)[C@]3(O)C[C@H](OC(=O)[C@H](O)[C@@H](NC(=O)c4ccccc4)c4ccccc4)C(C)=C1C3(C)C)[C@]1(OC(C)=O)CO[C@@H]1C[C@@H]2O`, the mutagenic call (End Point: IN VITRO CHROMOSOMAL ABERRATIONS, Test System: PERIPHERAL HUMAN BLOOD LYMPHOCYTES, Metabolic Activation: NONE) is “active; positive (ploidy changes)”; the mutagenic call (End Point: In vitro micronucleus, Test System: Human lymphoblastoid TK6 cells, Metabolic Activation: None) was “active; positive (p<0.001)”; the mutagenic call (End Point: In vivo micronucleus, Test System: Micronucleated, binucleated and multinucleated hepatocytes, Species: Mouse, Strain/Sex: ddY/Male, Route: Intravenous) is “active; positive for micronucleated, binucleated and multinucleated cells when agent adm”; the mutagenic call (Test System: AMES SALMONELLA TYPHIMURIUM, Strain/Indicator: TA97, Metabolic Activation: NONE, Method: STANDARD PLATE) was “inactive; negative”; the mutagenic call (Test System: AMES SALMONELLA TYPHIMURIUM, Strain/Indicator: TA97, Metabolic Activation: S-9, Method: STANDARD PLATE) is “inactive; negative”; the mutagenic call under setting [1] was “inactive; negative”. The mutagenic call by setting is: under setting [2], “inactive; negative”; under setting [3], “inactive; negative”; under setting [4], “inactive; negative”; (Test System: AMES SALMONELLA TYPHIMURIUM, Strain/Indicator: TA102, Metabolic Activation: NONE, Method: STANDARD PLATE) “inactive; negative”; (Test System: AMES SALMONELLA TYPHIMURIUM, Strain/Indicator: TA102, Metabolic Activation: S-9, Method: STANDARD PLATE) “inactive; negative”; (Test System: Mouse lymphoma, Strain/Indicator: L5178Y (Tk+/Tk-), Metabolic Activation: None, Method: Microwell) “active; positive”.

Consider `COc1ccc([C@H]2O[C@H]2C(=O)c2ccccc2)cc1`, for which the mutagenic call under setting [1] was “inactive; negative”; the mutagenic call (Test System: AMES SALMONELLA TYPHIMURIUM, Strain/Indicator: TA98, Metabolic Activation: RAT, LIVER, S-9, AROCLOR 1254, Method: STANDARD PLATE) is “inactive; negative”; the mutagenic call under setting [3] is “active; positive”; the mutagenic call (Test System: AMES SALMONELLA TYPHIMURIUM, Strain/Indicator: TA100, Metabolic Activation: RAT, LIVER, S-9, AROCLOR 1254, Method: STANDARD PLATE) is “active; positive”.

`Nc1ccc(N(c2ccc3ccccc3c2)c2ccc3ccccc3c2)cc1`: the mutagenic call is, setting by setting: under setting [1], “inactive; negative”; under setting [2], “inactive; negative”; under setting [3], “inactive; negative”; under setting [4], “inactive; negative”.

Take `OCC(O)CN1CCN(c2ccccc2)CC1` (stereo not drawn): the mutagenic call was “inactive; negative” (Test System: CHINESE HAMSTER V-79, Strain/Indicator: V-79/6-THIOGUANINE, Metabolic Activation: NONE) and “inactive; negative” (Test System: CHINESE HAMSTER V-79, Strain/Indicator: V-79/6-THIOGUANINE, Metabolic Activation: S-9).

Turning to `Cc1oc(=O)oc1COC(=O)[C@@H]1N2C(=O)[C@@H](NC(=O)[C@H](N)c3ccccc3)[C@H]2SC1(C)C`, the mutagenic call is “inactive; negative” (Test System: AMES SALMONELLA TYPHIMURIUM, Strain/Indicator: TA98, Metabolic Activation: NONE, Method: PREINCUBATION); “inactive; negative” (Test System: AMES SALMONELLA TYPHIMURIUM, Strain/Indicator: TA98, Metabolic Activation: RAT, LIVER, S-9, PHENOBARBITAL AND 5,6-BENZOFLAVONE, Method: PREINCUBATION); “inactive; negative” (Test System: AMES SALMONELLA TYPHIMURIUM, Strain/Indicator: TA100, Metabolic Activation: NONE, Method: PREINCUBATION); “inactive; negative” (Test System: AMES SALMONELLA TYPHIMURIUM, Strain/Indicator: TA100, Metabolic Activation: RAT, LIVER, S-9, PHENOBARBITAL AND 5,6-BENZOFLAVONE, Method: PREINCUBATION); “inactive; negative” (Test System: AMES SALMONELLA TYPHIMURIUM, Strain/Indicator: TA1535, Metabolic Activation: NONE, Method: PREINCUBATION); “inactive; negative” (Test System: AMES SALMONELLA TYPHIMURIUM, Strain/Indicator: TA1535, Metabolic Activation: RAT, LIVER, S-9, PHENOBARBITAL AND 5,6-BENZOFLAVONE, Method: PREINCUBATION). In addition, the mutagenic call (Test System: AMES SALMONELLA TYPHIMURIUM, Strain/Indicator: TA1537, Metabolic Activation: NONE, Method: PREINCUBATION) was “inactive; negative”; the mutagenic call (Test System: AMES SALMONELLA TYPHIMURIUM, Strain/Indicator: TA1537, Metabolic Activation: RAT, LIVER, S-9, PHENOBARBITAL AND 5,6-BENZOFLAVONE, Method: PREINCUBATION) was “inactive; negative”; the mutagenic call (Test System: AMES SALMONELLA TYPHIMURIUM, Strain/Indicator: TA1538, Metabolic Activation: NONE, Method: PREINCUBATION) was “inactive; negative”; the mutagenic call (Test System: AMES SALMONELLA TYPHIMURIUM, Strain/Indicator: TA1538, Metabolic Activation: RAT, LIVER, S-9, PHENOBARBITAL AND 5,6-BENZOFLAVONE, Method: PREINCUBATION) was “inactive; negative”; the mutagenic call (Test System: E. COLI, Strain/Indicator: WP2 UVRA, Metabolic Activation: NONE, Method: PREINCUBATION) was “inactive; negative”; the mutagenic call (Test System: E. COLI, Strain/Indicator: WP2 UVRA, Metabolic Activation: RAT, LIVER, S-9, AROCLOR 1254, Method: PREINCUBATION) is “inactive; negative”.

Consider `CC(O)C(=O)[O][Al]([O]C(=O)C(C)O)[O]C(=O)C(C)O` (stereo not drawn), for which the mutagenic call was “inactive; negative” (Test System: AMES SALMONELLA TYPHIMURIUM, Strain/Indicator: TA92, Metabolic Activation: NONE, Method: STANDARD PLATE); “inactive; negative” under setting [1]; “inactive; negative” under setting [3]; “inactive; negative” (Test System: AMES SALMONELLA TYPHIMURIUM, Strain/Indicator: TA104, Metabolic Activation: NONE, Method: STANDARD PLATE).
